Earlier results as cited in PMC8284440, “Toward New Transmission-Blocking Combination Therapies: Pharmacokinetics of 10-Amino-Artemisinins and 11-Aza-Artemisinin and Comparison with Dihydroartemisinin and Artemether” (Antimicrobial Agents and Chemotherapy, 2021).
Read-outs that look alike come from different tables or passages of the source.

Key:
WI-38 HFLF = tested on: WI-38 HFLF; set-up: method as in ref 4 (supplement; main text 62); settings: Table S2; ref 4 (supplement; main text 62); read-out: Cytotoxicities IC50 WI-38 HFLF; cited from earlier work
[1] = tested on: late stage (IV-V) P. falciparum NF54 gametocytes; set-up: method as in ref 4 (supplement; main text 62); settings: Table S4, n = 1; ref 4 (supplement; main text 62); read-out: Late stage IC50 (pLDH 72 + 72 h); cited from earlier work
[2] = tested on: liver stage P. berghei ANKA GFP-Luc-SMcon sporozoites; set-up: method as in ref 2 (supplement; main text 48); settings: ref 2 (supplement; main text 48), cited from earlier work; for IC50: 48 h, ± SD
HepG2 = settings: read-out: Cytotoxicity EC50 HepG2; ref 2 (supplement; main text 48); cited from earlier work
P. falciparum D6 = tested on: P. falciparum D6; set-up: method as in ref 5 (supplement; main text 63); settings: CQ sensitive; ref 5 (supplement; main text 63); read-out: Antimalarial activities IC50 D6; cited from earlier work
[3] = tested on: CamWTC580Y, Cam3.IIC580Y and Cam3.IIRev strains; set-up: method as in PMID 25049252; settings: read-out: mean IC50 across Cambodian strains; cited from earlier work
P. falciparum W2 = tested on: P. falciparum W2; set-up: method as in PMID 25049252; settings: read-out: activity against W2; cited from earlier work
W2 ring-stage parasites = tested on: W2 ring-stage parasites; set-up: method as in PMID 25288088; settings: not in a concentration-dependent manner; cited from earlier work
[4] = set-up: method as in PMID 16444785, PMID 18559649; settings: female rats, cited from earlier work
murine cerebral malaria = tested on: murine cerebral malaria; set-up: method as in PMID 20691118; settings: prescribed low dose levels; cited from earlier work
[5] = set-up: method as in PMID 16444785; settings: cited from earlier work
nonsevere malaria = tested on: nonsevere malaria; set-up: method as in PMID 18559649, PMID 30902052, doi:10.4103/jpp.JPP_23_20; settings: patients with nonsevere malaria; cited from earlier work
[6] = in vivo; cited from earlier work

C[C@@H]1CC[C@H]2[C@@H](C)C(=O)N[C@@H]3O[C@@]4(C)CC[C@@H]1[C@]32OO4 [11-Aza-artemisinin 11, 11-aza-artemisinin]
IC50 (WI-38 HFLF): > 100000 nM | IC50 [1]: 622 nM

CO[C@H]1O[C@@H]2O[C@@]3(C)CC[C@H]4[C@H](C)CC[C@@H]([C@H]1C)[C@@]24OO3 [Artemether 3, artemether]
IC50 [2]: > 104 nM | IC50 ([2]; listed as artemether): > 10000 nM | Maximum inhibition % ([2]; at 10 µM): 49.4%

C[C@H]1[C@H](N2CCSCC2)O[C@@H]2O[C@@]3(C)CC[C@H]4[C@H](C)CC[C@@H]1[C@@]24OO3 [Artemiside 5, artemiside]
IC50 [2]: 81.3 nM | Maximum inhibition % ([2]; at 5 µM): 99.05±1.34% | EC50 (HepG2): > 25000 nM

C[C@H]1[C@H](N2CCS(=O)(=O)CC2)O[C@@H]2O[C@@]3(C)CC[C@H]4[C@H](C)CC[C@@H]1[C@@]24OO3 [Artemisone 6, artemisone]
IC50 [2]: 28.3 nM | Maximum inhibition % ([2]; at 10 µM): 93.35±1.76% | IC50 (P. falciparum D6): 1 ± 0.4 nM | IC50 [3]: 2.4 nM | IC50 (P. falciparum W2): 1.9 nM | Induction of quiescence in W2 ring-stage parasites (W2 ring-stage parasites): induce quiescence | Cmax ([4]; single oral dose 3 mg/kg): 35 ng/mL | elimination half-life ([4]; single oral dose 3 mg/kg): 10.8 min | Cmax ([4]; single oral dose 10 mg/kg): 230 ng/mL | elimination half-life ([4]; single oral dose 10 mg/kg): 22.2 min | Cmax ([4]; single oral dose 30 mg/kg): 850 ng/mL | elimination half-life ([4]; single oral dose 30 mg/kg): 32.4 min | Cure of murine cerebral malaria (murine cerebral malaria): completely curative | Neurotoxicity [5]: nonneurotoxic | Cure in phase IIa trial (nonsevere malaria): curative at one-third the dose level of artesunate | EC50 (HepG2): > 50000 nM | artemisone equivalent concentrations at Tmax by bioassay versus LC/MS-MS, fold higher [6]: about 2.3 fold

C[C@H]1[C@H](N2CCN(C(=O)Nc3ccc(F)cc3)CC2)O[C@@H]2O[C@@]3(C)CC[C@H]4[C@H](C)CC[C@@H]1[C@@]24OO3 [Arylurea 10]
IC50 [2]: 106 nM | Maximum inhibition % ([2]; at 10 µM): 94.85±2.76% | EC50 (HepG2): 5160 nM

C[C@H]1[C@@H](O)O[C@@H]2O[C@@]3(C)CC[C@H]4[C@H](C)CC[C@@H]1[C@@]24OO3 [DHA 2, dihydroartemisinin]
IC50 (P. falciparum D6): 1.7 ± 0.4 nM | IC50 [3]: 11.2 nM | IC50 (P. falciparum W2): 5.2 nM | Cure of murine cerebral malaria (murine cerebral malaria): no cure

C[C@H]1[C@H](N2C=CS(=O)(=O)CC2)O[C@@H]2O[C@@]3(C)CC[C@H]4[C@H](C)CC[C@@H]1[C@@]24OO3 [M1 12]
IC50 (P. falciparum D6): 4.7 ± 0.2 nM | Induction of quiescence in W2 ring-stage parasites (W2 ring-stage parasites): induce quiescence
